Assay results taken from patent US11396502B2, “Substituted heterocyclic derivatives as PI3K inhibitors” (Incyte Corporation, priority 2018, dated 2022).
Structures can show the parent of a compound that is named as a salt. Where two headings read alike, the source gives them in different places.

Experiments:
PI3Kγ (p110γ) = PI3Kγ (p110γ) (Homo sapiens (Human), UniProt P48736); experiment: PI3K-γ scintillation proximity assay; assay type: biochemical; details: recombinant human PI3Kγ 13 nM, 20 μM PIP2, 2 μM ATP, 120 min, room temperature
Sequence of PI3Kγ (p110γ) (P48736 whole entry): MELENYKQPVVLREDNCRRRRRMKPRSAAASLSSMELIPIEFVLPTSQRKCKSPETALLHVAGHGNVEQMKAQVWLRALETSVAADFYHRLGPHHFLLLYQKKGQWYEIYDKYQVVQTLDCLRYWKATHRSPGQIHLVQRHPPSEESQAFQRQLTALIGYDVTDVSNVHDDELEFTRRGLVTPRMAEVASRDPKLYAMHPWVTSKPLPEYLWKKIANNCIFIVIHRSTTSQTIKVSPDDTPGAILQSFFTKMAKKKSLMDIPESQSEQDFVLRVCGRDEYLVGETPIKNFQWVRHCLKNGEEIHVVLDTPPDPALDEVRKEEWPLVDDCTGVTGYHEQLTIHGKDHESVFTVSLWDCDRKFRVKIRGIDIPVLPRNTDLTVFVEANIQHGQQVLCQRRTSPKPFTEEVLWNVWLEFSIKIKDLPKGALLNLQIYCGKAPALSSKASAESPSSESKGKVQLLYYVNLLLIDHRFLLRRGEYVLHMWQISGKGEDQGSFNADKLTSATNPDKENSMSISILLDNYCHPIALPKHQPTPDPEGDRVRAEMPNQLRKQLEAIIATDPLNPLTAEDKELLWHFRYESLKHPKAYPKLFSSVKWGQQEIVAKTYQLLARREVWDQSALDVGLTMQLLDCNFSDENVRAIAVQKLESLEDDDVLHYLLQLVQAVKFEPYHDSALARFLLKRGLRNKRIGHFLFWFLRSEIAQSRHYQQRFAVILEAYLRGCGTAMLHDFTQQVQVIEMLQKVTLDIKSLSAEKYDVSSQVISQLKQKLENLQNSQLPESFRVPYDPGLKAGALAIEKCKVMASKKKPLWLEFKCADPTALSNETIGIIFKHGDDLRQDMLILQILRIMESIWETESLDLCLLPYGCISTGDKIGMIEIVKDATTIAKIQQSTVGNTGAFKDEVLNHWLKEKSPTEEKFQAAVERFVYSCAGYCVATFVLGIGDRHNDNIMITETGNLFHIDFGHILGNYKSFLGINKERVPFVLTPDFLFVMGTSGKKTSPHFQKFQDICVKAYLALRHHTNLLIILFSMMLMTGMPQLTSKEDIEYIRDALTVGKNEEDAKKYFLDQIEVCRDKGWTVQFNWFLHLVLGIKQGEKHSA
Excerpt: Example B. PI3K-γ Scintillation Proximity Assay Materials: [γ-^33P]ATP (10 mCi/mL) and Wheat Germ Agglutinin (WGA) YSi SPA Scintillation Beads was purchased from Perkin Elmer (Waltham, Mass.). Lipid kinase substrate, D-myo-Phosphatidylinositol 4,5-bisphosphate (PtdIns(4,5)P2)D (+)-sn-1,2-di-O-octanoylglyceryl, 3-O-phospho linked (PIP2), CAS 204858-53-7, was purchased from Echelon Biosciences (Salt Lake City, Utah). PI3Kγ (p110γ) Recombinant Human Protein was purchased from Life technology (Grand Island, N.Y.). ATP, MgCl2, DTT, EDTA, MOPS and CHAPS were purchased from Sigma Aldrich (St. Louis, Mo.). The kinase reaction was conducted in polystyrene 384-well Greiner Bio-one white plate from Thermo Fisher Scientific in a final volume of 25 μL. Inhibitors were first diluted serially in DMSO and added to the plate wells before the addition of other reaction components. The final concentration of DMSO in the assay was 2%. The PI3Kγ assay was carried out at room temperature in 20 mM MOPS, pH 6.7, 10 mM MgCl2, 5 mM DTT and CHAPS 0.03%. Reactions were initiated by the addition of ATP, the final reaction mixture consisted of 20 μM PIP2, 2 μM ATP, 0.5 μCi [γ-^33P] ATP, 13 nM PI3Kγ. Reactions were incubated for 120 min and terminated by the addition of 40 μL SPA beads suspended in quench buffer: 163 mM potassium phosphate pH 7.8, 20% glycerol, 25 mM EDTA. The final concentration of SPA beads is 1.0 mg/mL. After the plate sealing, plates were shaken overnight at room temperature and centrifuged at 1500 rpm for 10 min, the radioactivity of the product was determined by scintillation counting on Topcount (Perkin-Elmer). IC50 determination was performed by fitting the curve of percent of the solvent control activity versus the log of the inhibitor concentration using the GraphPad Prism 6.0 software.

PI3Kδ (p110δ/p85α) = PI3Kδ (p110δ/p85α) (Homo sapiens (Human), UniProt O00329); experiment: PI3Kδ scintillation proximity assay; assay type: biochemical; details: recombinant human PI3Kδ 3.4 nM, 20 μM PIP2, 2 μM ATP, 120 min, room temperature
Sequence of PI3Kδ (p110δ/p85α) (O00329 whole entry): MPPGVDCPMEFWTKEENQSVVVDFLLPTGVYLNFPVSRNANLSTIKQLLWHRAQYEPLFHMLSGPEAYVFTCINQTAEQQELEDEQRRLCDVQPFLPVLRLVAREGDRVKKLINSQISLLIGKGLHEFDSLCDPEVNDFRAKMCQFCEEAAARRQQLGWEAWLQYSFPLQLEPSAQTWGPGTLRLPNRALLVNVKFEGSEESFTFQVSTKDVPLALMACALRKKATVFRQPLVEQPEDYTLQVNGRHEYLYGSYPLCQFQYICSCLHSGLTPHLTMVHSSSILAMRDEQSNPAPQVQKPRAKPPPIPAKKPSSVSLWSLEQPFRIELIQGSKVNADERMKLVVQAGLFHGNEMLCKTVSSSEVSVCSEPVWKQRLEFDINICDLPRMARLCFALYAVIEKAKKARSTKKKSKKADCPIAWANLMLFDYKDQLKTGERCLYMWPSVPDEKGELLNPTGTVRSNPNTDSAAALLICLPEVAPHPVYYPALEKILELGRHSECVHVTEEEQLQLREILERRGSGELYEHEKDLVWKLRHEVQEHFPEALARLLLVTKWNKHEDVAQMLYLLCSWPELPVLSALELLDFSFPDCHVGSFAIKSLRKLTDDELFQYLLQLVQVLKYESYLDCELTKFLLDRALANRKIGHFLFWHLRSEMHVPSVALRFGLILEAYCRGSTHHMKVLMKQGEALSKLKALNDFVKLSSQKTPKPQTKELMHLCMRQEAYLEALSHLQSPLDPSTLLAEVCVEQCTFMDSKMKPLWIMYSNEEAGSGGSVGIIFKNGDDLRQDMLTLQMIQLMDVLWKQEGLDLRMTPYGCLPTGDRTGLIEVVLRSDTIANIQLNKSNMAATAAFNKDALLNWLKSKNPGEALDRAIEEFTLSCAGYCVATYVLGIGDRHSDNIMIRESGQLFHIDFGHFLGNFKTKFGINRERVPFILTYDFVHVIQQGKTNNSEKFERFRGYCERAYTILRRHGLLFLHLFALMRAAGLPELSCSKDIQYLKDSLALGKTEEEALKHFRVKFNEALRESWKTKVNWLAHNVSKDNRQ
Sequence of PI3Kδ (p110δ/p85α) (P27986 whole entry partner): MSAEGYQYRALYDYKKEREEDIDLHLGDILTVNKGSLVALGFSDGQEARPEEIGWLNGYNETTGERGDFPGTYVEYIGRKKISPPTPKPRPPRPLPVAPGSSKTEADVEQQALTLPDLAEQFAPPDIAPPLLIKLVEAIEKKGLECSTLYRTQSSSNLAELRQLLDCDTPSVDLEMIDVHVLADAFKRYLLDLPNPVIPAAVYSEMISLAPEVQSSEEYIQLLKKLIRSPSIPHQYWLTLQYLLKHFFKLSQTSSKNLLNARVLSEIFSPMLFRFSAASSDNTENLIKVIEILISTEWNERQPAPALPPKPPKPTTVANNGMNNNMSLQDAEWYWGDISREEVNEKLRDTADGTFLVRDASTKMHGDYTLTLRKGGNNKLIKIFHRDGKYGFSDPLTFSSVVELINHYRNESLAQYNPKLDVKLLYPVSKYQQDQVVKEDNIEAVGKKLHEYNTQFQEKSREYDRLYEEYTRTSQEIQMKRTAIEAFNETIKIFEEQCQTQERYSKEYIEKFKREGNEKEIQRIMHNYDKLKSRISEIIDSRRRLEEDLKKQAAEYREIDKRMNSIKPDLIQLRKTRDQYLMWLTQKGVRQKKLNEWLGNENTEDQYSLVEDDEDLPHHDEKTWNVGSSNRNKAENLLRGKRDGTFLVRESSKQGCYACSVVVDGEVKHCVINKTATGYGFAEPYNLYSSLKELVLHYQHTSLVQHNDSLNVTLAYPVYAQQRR
Excerpt: Example C. PI3Kδ Scintillation Proximity Assay Materials: [γ-^33P]ATP (10 mCi/mL) and Wheat Germ Agglutinin (WGA) YSi SPA Scintillation Beads was purchased from Perkin Elmer (Waltham, Mass.). Lipid kinase substrate, D-myo-Phosphatidylinositol 4,5-bisphosphate (PtdIns(4,5)P2)D (+)-sn-1,2-di-O-octanoylglyceryl, 3-O-phospho linked (PIP2), CAS 204858-53-7, was purchased from Echelon Biosciences (Salt Lake City, Utah). PI3Kδ (p110δ/p85α) Recombinant Human Protein was purchased from Eurofins (St Charles, Mo.). ATP, MgCl2, DTT, EDTA, MOPS and CHAPS were purchased from Sigma Aldrich (St. Louis, Mo.). The kinase reaction was conducted in polystyrene 384-well Greiner Bio-one white plate from Thermo Fisher Scientific in a final volume of 25 μL. Inhibitors were first diluted serially in DMSO and added to the plate wells before the addition of other reaction components. The final concentration of DMSO in the assay was 2%. The PI3Kδ assay was carried out at room temperature in 20 mM MOPS, pH 6.7, 10 mM MgCl2, 5 mM DTT and CHAPS 0.03%. Reactions were initiated by the addition of ATP, the final reaction mixture consisted of 20 μM PIP2, 2 μM ATP, 0.5 μCi [γ-^33P] ATP, 3.4 nM PI3Kδ. Reactions were incubated for 120 min and terminated by the addition of 40 μL SPA beads suspended in quench buffer: 163 mM potassium phosphate pH 7.8, 20% glycerol, 25 mM EDTA. The final concentration of SPA beads is 1.0 mg/mL. After the plate sealing, plates were shaken overnight at room temperature and centrifuged at 1500 rpm for 10 min, the radioactivity of the product was determined by scintillation counting on Topcount (PerkinElmer). IC50 determination was performed by fitting the curve of percent of the solvent control activity versus the log of the inhibitor concentration using the GraphPad Prism 6.0 software.

[1] = system: Phosphorylated Ribosomal Protein S6 (RPS6) in THP-1 cells; experiment: THP-1 RPS6 ELISA assay; assay type: cell-based, Human; details: Homo sapiens
Description: Example A. THP-1 RPS6 ELISA Assay
To measure the Phosphorylated Ribosomal Protein S6 (RPS6) in cell lysates, THP-1 cells (Human Acute Monocytic Leukemia) are purchased from ATCC (Manassas, Va.) and maintained in RPMI with 10% FBS (Gibco/Life Technologies, Carlsbad, Calif.). For the assay, THP-1 cells are serum starved overnight in RPMI, then plated in RPMI (2×10^5 cells/well in 90 μL) into 96-well flat-bottom tissue culture treated plates (Corning, Corning, N.Y.), in the presence or absence of a concentration range of test compounds. Covered plates are incubated for 2 hours at 37° C., 5% CO2 then treated with or without 10 nM MCP-1 (MYBioSource, San Diego, Calif.) for 15 minutes at 37° C., 5% CO2. Plates are centrifuged at 1600 RPM and supernatants are removed. Cells are lysed in Lysis Buffer (Cell Signaling, Danvers, Mass.) with Protease Inhibitor (Calbiochem/EMD, Germany), PMSF (Sigma, St Louis Mo.), HALTS (Thermo Fisher, Rockford, Ill.) for 30 min on wet ice. Cell lysates are frozen at −80° C. before testing. The lysates are tested in the Human/Mouse/Rat Phospho-RPS6 ELISA (R&D Systems, Inc. Minn, Minn.). The plate is measured using a microplate reader (SpectraMax M5—Molecular Devices, LLC Sunnyvale, Calif.) set to 450 nm with a wavelength correction of 540. IC50 determination is performed by fitting the curve of inhibitor percent inhibition versus the log of the inhibitor concentration using the GraphPad Prism 5.0 software.

[2] = THP-1, serum starved THP-1 cells, 2 hours compound, 10 nM MCP-1 for 15 minutes, Phospho-RPS6 ELISA, read-out: PI3Kγ_THP1_RPS6_ELISA IC50

Row | IC50 (PI3Kγ (p110γ)) | IC50 (PI3Kδ (p110δ/p85α)) | IC50 [1, 2] | Structure (SMILES) | IC50 ([1]; THP-1, read-out: PI3Kγ_THP1_RPS6_ELISA IC50 (nM))
1 | < 0.1 µM | 0.5 to 2 µM | > 1000 nM | Cc1[nH]c(-c2cc(-c3cc4c(c(S(C)(=O)=O)c3)C(=O)N([C@@H](C)C3CC3)C4)ccn2)nc1C(N)=O [Example 7q, (S)-2-(4-(2-(1-Cyclopropylethyl)-7-(methylsulfonyl)-1-oxoisoindolin-5-yl)pyridin-2-yl)-4-methyl-1H-imidazole-5-carboxamide, trifluoroacetate salt] | –
2 | < 0.1 µM | 0.5 to 2 µM | 100 to 500 nM | CCNC(=O)c1nc(-c2cc(-c3cc4c(c(S(C)(=O)=O)c3)C(=O)N([C@@H](C)C3CC3)C4)ccn2)[nH]c1C [Example 7r, (S)-2-(4-(2-(1-Cyclopropylethyl)-7-(methylsulfonyl)-1-oxoisoindolin-5-yl)pyridin-2-yl)-N-ethyl-4-methyl-1H-imidazole-5-carboxamide, trifluoroacetate salt] | –
3 | < 0.1 µM | 0.5 to 2 µM | 500 to 1000 nM | CCN(C)C(=O)c1nc(-c2cc(-c3cc4c(c(S(C)(=O)=O)c3)C(=O)N([C@@H](C)C3CC3)C4)ccn2)[nH]c1C [Example 7s, (S)-2-(4-(2-(1-Cyclopropylethyl)-7-(methylsulfonyl)-1-oxoisoindolin-5-yl)pyridin-2-yl)-N-ethyl-N,4-dimethyl-1H-imidazole-5-carboxamide, trifluoroacetate salt] | –
4 | < 0.1 µM | 0.5 to 2 µM | 100 to 500 nM | Cc1[nH]c(-c2cc(-c3cc4c(c(S(C)(=O)=O)c3)C(=O)N([C@@H](C)C3CC3)C4)ccn2)nc1C(=O)N(C)C(C)C [Example 7t, (S)-2-(4-(2-(1-Cyclopropylethyl)-7-(methylsulfonyl)-1-oxoisoindolin-5-yl)pyridin-2-yl)-N-isopropyl-N,4-dimethyl-1H-imidazole-5-carboxamide, trifluoroacetate salt] | –
5 | < 0.1 µM | 0.5 to 2 µM | 100 to 500 nM | Cc1[nH]c(-c2cc(-c3cc4c(c(S(C)(=O)=O)c3)C(=O)N([C@@H](C)C3CC3)C4)ccn2)nc1C(=O)N(C)C1CCC1 [Example 7u, (S)-N-Cyclobutyl-2-(4-(2-(1-cyclopropylethyl)-7-(methylsulfonyl)-1-oxoisoindolin-5-yl)pyridin-2-yl)-N,4-dimethyl-1H-imidazole-5-carboxamide, trifluoroacetate salt] | –

More lines, now with the values behind:

Row | Structure (SMILES) | IC50 (PI3Kγ (p110γ)) | IC50 (PI3Kδ (p110δ/p85α)) | IC50 [1, 2] | IC50 ([1]; THP-1, read-out: PI3Kγ_THP1_RPS6_ELISA IC50 (nM))
6 | Cc1[nH]c(-c2cc(-c3cc4c(c(S(C)(=O)=O)c3)C(=O)N([C@@H](C)C3CC3)C4)ccn2)nc1C(=O)NC12CCC(C#N)(C1)C2 [Example 7h, (S)-N-(4-Cyanobicyclo[2.1.1]hexan-1-yl)-2-(4-(2-(1-cyclopropylethyl)-7-(methylsulfonyl)-1-oxoisoindolin-5-yl)pyridin-2-yl)-4-methyl-1H-imidazole-5-carboxamide, trifluoroacetate salt] | < 0.1 µM | < 0.1 µM | 100 to 500 nM | –
7 | Cc1[nH]c(-c2cc(-c3cc4c(c(S(C)(=O)=O)c3)C(=O)N([C@@H](C)C3CC3)C4)ccn2)nc1C(=O)NC1CC2(COC2)C1 [Example 7i, (S)-2-(4-(2-(1-Cyclopropylethyl)-7-(methylsulfonyl)-1-oxoisoindolin-5-yl)pyridin-2-yl)-4-methyl-N-(2-oxaspiro[3.3]heptan-6-yl)-1H-imidazole-5-carboxamide, trifluoroacetate salt] | < 0.1 µM | < 0.1 µM | 100 to 500 nM | –
8 | Cc1[nH]c(-c2cc(-c3cc4c(c(S(C)(=O)=O)c3)C(=O)N([C@@H](C)C3CC3)C4)ccn2)nc1C(=O)N1CCC1 [Example 7j, (S)-5-(2-(5-(Azetidine-1-carbonyl)-4-methyl-1H-imidazol-2-yl)pyridin-4-yl)-2-(1-cyclopropylethyl)-7-(methylsulfonyl)isoindolin-1-one, trifluoroacetate salt] | < 0.1 µM | 0.1 to 0.5 µM | – | 100 to 500 nM
9 | Cc1[nH]c(-c2cc(-c3cc4c(c(S(C)(=O)=O)c3)C(=O)N([C@@H](C)C3CC3)C4)ccn2)nc1C(=O)NC1CCC1 [Example 7k, (S)-N-Cyclobutyl-2-(4-(2-(1-cyclopropylethyl)-7-(methylsulfonyl)-1-oxoisoindolin-5-yl)pyridin-2-yl)-4-methyl-1H-imidazole-5-carboxamide, trifluoroacetate salt] | < 0.1 µM | 0.1 to 0.5 µM | 100 to 500 nM | –
10 | Cc1[nH]c(-c2cc(-c3cc4c(c(S(C)(=O)=O)c3)C(=O)N([C@@H](C)C3CC3)C4)ccn2)nc1C(=O)NC1CN(C)C1 [Example 7m, (S)-2-(4-(2-(1-Cyclopropylethyl)-7-(methylsulfonyl)-1-oxoisoindolin-5-yl)pyridin-2-yl)-4-methyl-N-(1-methylazetidin-3-yl)-1H-imidazole-5-carboxamide, trifluoroacetate salt] | < 0.1 µM | 0.5 to 2 µM | 500 to 1000 nM | –
11 | Cc1[nH]c(-c2cc(-c3cc4c(c(S(C)(=O)=O)c3)C(=O)N([C@@H](C)C3CC3)C4)ccn2)nc1C(=O)N(C)C1CCOCC1 [Example 7o, (S)-2-(4-(2-(1-Cyclopropylethyl)-7-(methylsulfonyl)-1-oxoisoindolin-5-yl)pyridin-2-yl)-N,4-dimethyl-N-(tetrahydro-2H-pyran-4-yl)-1H-imidazole-5-carboxamide, trifluoroacetate salt] | < 0.1 µM | 0.1 to 0.5 µM | 100 to 500 nM | –
12 | Cc1[nH]c(-c2cc(-c3cc4c(c(S(C)(=O)=O)c3)C(=O)N([C@@H](C)C3CC3)C4)ccn2)nc1C(=O)N1CC2(COC2)C1 [Example 7p, (S)-2-(1-Cyclopropylethyl)-5-(2-(4-methyl-5-(2-oxa-6-azaspiro[3.3]heptane-6-carbonyl)-1H-imidazol-2-yl)pyridin-4-yl)-7-(methylsulfonyl)isoindolin-1-one, trifluoroacetate salt] | < 0.1 µM | 0.5 to 2 µM | 100 to 500 nM | –
